{"source": "paper PMC3513416", "about": "(Bioorganic & medicinal chemistry letters, 2009)", "molecular_target": "T1, taspase1 (Homo sapiens, UniProt Q9H6P5)", "T1 sequence (Q9H6P5 1-233 limits assumed)": "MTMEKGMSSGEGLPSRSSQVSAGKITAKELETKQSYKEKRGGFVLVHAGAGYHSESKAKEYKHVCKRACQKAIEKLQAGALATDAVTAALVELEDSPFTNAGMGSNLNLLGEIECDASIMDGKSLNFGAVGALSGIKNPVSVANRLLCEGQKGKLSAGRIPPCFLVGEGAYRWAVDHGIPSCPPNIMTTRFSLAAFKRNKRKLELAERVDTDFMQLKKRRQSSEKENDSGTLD", "T1 sequence (Q9H6P5 234-420 limits assumed)": "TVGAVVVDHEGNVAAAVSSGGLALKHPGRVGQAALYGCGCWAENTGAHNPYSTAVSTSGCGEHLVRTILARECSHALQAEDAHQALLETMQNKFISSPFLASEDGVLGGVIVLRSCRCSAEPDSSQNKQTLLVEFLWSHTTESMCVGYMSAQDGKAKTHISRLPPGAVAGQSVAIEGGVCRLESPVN", "assay": "Inhibition rates after different pre-incubation times", "type": "biochemical", "conditions": "different amounts of pre-incubation time"}
{"substance": "Ac-Ile-Ser-Gln-Leu-Asp-vs [yzm18]", "values": [{"measurement": "time dependence of inhibition", "value": "inhibition was not time dependent"}]}
